Assay results reported in patent US8212038B2, “Methods and compositions for controlling ectoparasites” (HatchTech Pty Ltd., priority 2003, dated 2012).
“Also recorded” adds a separate entry of the source. Square brackets hold non-standard residues; d marks the D form. Peptide text beside a SMILES is read from it. * marks the point of attachment. Sta = CC(C)C[C@H](N)[C@@H](O)CC(=O)O; Isovaleryl = CC(C)CC(=O)*

Assays:
[1] = system: proteases in the egg shell washings (ESW) of lice eggs; assay: Gelatine substrate SDS-PAGE of egg shell washings treated with protease inhibitors; type: biochemical, Pediculus humanus humanus; conditions: 37° C., 3 hrs
Procedure: Within 12 hours of hatching 50 body lice eggs (Pediculus humanus humanus) were removed from the hair and placed in a 1 ml eppendorf tube. 20 μL of distilled water was added to the unhatched eggs and the preparation incubated for 30 minutes at 32° C. The 20 μL was recovered, freeze dried and stored at −70° C. A number of other samples were also collected as described. Hair samples from which unhatched lice eggs had been removed were also collected and incubated as described above. In addition, a sample of unhatched eggs and a sample of hair from which lice eggs had been removed were collected 7 days post laying (within 24 hrs of egg hatching). Both samples were washed in 10 mls of a 1% solution of sodium hypochlorite for 1 minute followed by a 5×1 minute washes in 25 mls in distilled water to remove the hypochlorite. These samples were then incubated in […] of distilled water as described above. In addition, a group of 25 lice eggs that were within 24 hours of hatching, were pretreated with 1% sodium hypochlorite, washed as described above and left to hatch. Within 1-2 hours after hatching the empty egg shells were incubated in 20 μL of distilled water as described above, the washings collected from the hatched egg shells and stored at −70° C. All of the extract samples were then freeze-dried overnight. The freeze-dried samples were then resuspended in […] of non-reducing SDS sample buffer, centrifuged at 10,000 g for 2 minutes and the entire 15 μL loaded on to 10% gelatine substrate SDS-PAGE gels. Gels were run at 4° C. for 10 minutes at 10 mA followed by a further 25 minutes at 15 mA per gel. They were then incubated for 2×20 minutes in a 2.5% Triton-X 100 solution followed by a three hour incubation in 0.1M Tris/HCl containing 1 mM CaCl2 pH 8.0. Activity was detected as clear areas on the gel the result of protease activity degrading the gelatine within the gel.
10% SDS-PAGE gelatine substrate gels were loaded with freeze dried egg shell washings from 100 lice eggs that had been resuspended in 50 μl of non-reducing sample buffer with samples run at 10 μl per lane. Gels were run at 4° C. for 10 minutes at 10 mA per gel followed by a further 25 minutes at 15 mA per gel. Gels were then cut into strips and each strip incubated for 2×20 minutes in a 2.5% Triton-X 100 solution containing a specific inhibitor. The inhibitors used were the serine protease inhibitor PMSF (5 mM), the metalloprotease inhibitor 1,10-phenanthroline (10 mM), the aspartic protease Pepstatin (5 μM) and the cysteine inhibitor E-64 (10 μM). The gel strips were then incubated in 0.1M Tris/HCl containing 1 mM CaCl2 pH 8 containing the different protease inhibitors for 3 hrs at 37° C., before being stained in Coomassie blue and destained as previously described.

lice eggs [2] = assay: Lice egg-hatching bioassay, eggs treated once 5 days post laying; type: in vivo, Pediculus humanus humanus
Procedure: To evaluate the potential effects of protease inhibitors on lice egg hatching it was necessary to develop a reliable in vitro bioassay. Male and female clothing lice were fed on a rabbit as previously described. […] During this period the female lice laid their eggs and attached them to the woven cloth. All lice would then be removed and the eggs permitted to incubate for the following 5 days. […] The eggs would then progress through to their final stages of development and hatch. In untreated control eggs a reliable average percentage hatch of between 85-95 percent was obtained using the in vitro egg hatch assay. […] Lice eggs were laid onto cloth as described above. […] Protease inhibitor solutions were typically prepared as stock solutions and added fresh at the appropriate concentration. Specifically stock solutions were prepared as follows: 1,10-phenanthroline (200 mM in methanol) and Bestatin (5 mg/ml in methanol). In addition, the equivalent levels of the solvent were added to the non-inhibitor containing controls eggs to test for any buffer alone effects. Percentage hatch inhibition was calculated as the percentage reduction in egg hatch compared to the untreated control.

[3] = system: head lice egg (Pediculus humanus capitus); assay: Head lice egg hatching time course; type: in vivo; conditions: 10 mM
Procedure: Tests were carried out to determine if metal chelating agent and metalloprotease inhibitor 1,10-phenanthroline could inhibit head lice egg (Pediculus humanus capitus) hatching as opposed to body lice. Head lice eggs were obtained by placing groups of both 1-2 adult male and 6-8 adult female head lice in separate wells in a 24 well petri dish containing cotton cloth. The petri dish was transferred to a humid incubator at 32° C., 70% RH for 12 hours to permit the female lice to lay their eggs. After 12 hours, all adult lice were removed from the petri dish wells and a series of time-course experiments conducted. A group of eggs (24 hr old) was treated for 10 minutes with 200 μl of a 10 mM solution of 1,10-phenanthroline. A control (i.e., no inhibitor treatment) group of eggs was also included. The eggs were removed from the inhibitor, blotted dry on tissue paper, placed at 32° C., 70% RH and left to hatch. A second group of eggs, (48 hr old) were treated as previously described and also left to hatch. This process was repeated at 24 hr intervals on head lice eggs up to 120 hr post laying. This method of assaying inhibitors more closely mirrors the field situation where lice eggs will be at various stages of development on the head and permits the inhibitory effects to be observed on these different stages of the parasite.

[4] = system: Plutella xylostella eggs (Waite strain); assay: Egg hatch of Plutella xylostella after dipping in inhibitor; conditions: 10 mM
Procedure: The egg masses were then placed in a humid box at 25 degrees until egg hatch. Control eggs were exposed to absolute methanol as described above. At day 6 post laying the eggs were assessed from the different treatments and the percentage of egg hatch determined relative to the control as shown in Table 9.
Batches of Plutella eggs that were laid on either fine cloth or parafilm were dipped in a specific inhibitor solution for between 2-10 seconds, the excess solution was drained by blotting with dry tissue paper. The egg masses were then placed in a humid box at 25 degrees until egg hatch. Control eggs were exposed to absolute methanol as described above or not treated.
The egg masses were then placed in a humid box at 25 degrees until egg hatch. Control eggs were exposed to absolute ethanol as described above. On day 6 post laying the eggs were assessed from the different treatments and the percentage of egg hatch determined relative to the control.

lice eggs [5] = assay: Standard lice egg-hatching assay with commercial head lice products; type: in vivo; conditions: across the different stages of lice egg hatching (24-120 hr post laying)
Procedure: These three products were tested according to manufacturer's recommendations. Groups of eggs (24 hr old) were treated with the different products according to manufacturer's recommendations for the appropriate period of time (5-10 minutes) followed by a rinse for 1-2 minutes in 32° C. water. A positive controls (10 mM 1,10-phenanthroline) and two negative controls (no treatment and 20% Methanol) were also incorporated. Post exposure to the different products, the eggs were rinsed with warm water at 32° C. before being blotted dry on tissue paper and placed at 32° C., 70% RH and left to hatch. A second group of eggs, (48 hr old) were treated as previously described and also left to hatch. This process was repeated at 24 hr intervals on head lice eggs up to 120 hr post laying. This method of assaying inhibitors more closely mirrors the field situation where lice eggs will be at various stages of development on the head and permits the inhibitory effects to be observed on these different stages of the parasite.
These two products were tested according to manufacturer's recommendations. Groups of eggs (24 hr old) were treated with the different products according to manufacturer's recommendations for the appropriate period of time (5-10 minutes) followed by a rinse for 1-2 minutes in 32° C. water. Two negative controls (no treatment and 20% ethanol) were also incorporated. […]

lice eggs [6] = assay: Time course in vitro lice egg hatching assay; type: in vivo, Pediculus humanus humanus
[7] = system: Helicoverpa armigera eggs (Tatura×Toowoomba strains); assay: Egg hatch of Helicoverpa armigera after exposure to inhibitor; conditions: 10 mM
Procedure: Several hundred Helicoverpa armigera eggs (Tatura×Toowoomba strains) were collected, that had been laid on fine mesh cloth over a 24 hour period.
Batches of Helicoverpa eggs were exposed to a specific inhibitor solution for between 2-10 seconds the excess solution drained by blotting with dry tissue paper. The egg masses were then placed in a humid box at 25 degrees until egg hatch. Control eggs were exposed to absolute methanol as described above.

[8] = added within 24 hours of hatching, data not shown

c1cnc2c(c1)ccc1cccnc12 [1,10-phenanthroline, reference compound]
protease activity of ESW on gelatine SDS-PAGE after inhibitor treatment ([1]; 10 mM inhibitor): significant reduction in protease activity
inhibition of egg hatching in lice (in words) (lice eggs [2]; 10 mM, eggs treated 5 days post laying): significantly inhibited egg hatching
inhibition of egg hatching in lice (in words) (lice eggs [2]; [8]): variable inhibition of egg hatching
inhibition of egg hatching in head lice (in words) [3]: significantly inhibit egg hatching in head lice
inhibition of egg hatching in Plutella xylostella (in words) [4]: significantly inhibit egg hatching
ovicidal activity (in words) (lice eggs [5]): highly effective at inhibiting lice egg hatching
inhibition of lice egg hatching (in words) (lice eggs [6]; 10 mM, following washing of eggs in water): still highly efficacious at inhibiting lice egg hatching
inhibition of lice egg hatching (in words) (lice eggs [6]; varying concentrations (10, 5, 2.5 mM) over the time course): Significant inhibition; also recorded: significantly inhibit egg hatching in lice at all time points examined
inhibition of egg hatching of Helicoverpa armigera (in words) [7]: able to inhibit egg hatching at 10 mM only

CC(C)C[C@H](NC(=O)[C@@H](O)[C@H](N)Cc1ccccc1)C(=O)O [Bestatin, reference compound]
inhibition of egg hatching in lice (in words) (lice eggs [2]; 5 mM, eggs treated 5 days post laying): significantly inhibit lice egg hatching
inhibition of egg hatching in lice (in words) (lice eggs [2]; [8]): variable inhibition of egg hatching
inhibition of lice egg hatching (in words) (lice eggs [6]; 5 mM, time course): significant inhibition, but only when applied approximately 24 hrs prior to egg hatch; also recorded: partially inhibit lice egg hatching

CC(C)C[C@H](NC(=O)[C@H]1O[C@@H]1C(=O)O)C(=O)NCCCCN=C(N)N [E64]
protease activity of ESW on gelatine SDS-PAGE after inhibitor treatment ([1]; 10 μM inhibitor): No reduction in protease activity

O=S(=O)(F)Cc1ccccc1 [PMSF]
protease activity of ESW on gelatine SDS-PAGE after inhibitor treatment ([1]; 5 mM inhibitor): No reduction in protease activity

CC(C)CC(=O)N[C@H](C(=O)N[C@H](C(=O)N[C@@H](CC(C)C)[C@@H](O)CC(=O)N[C@@H](C)C(=O)N[C@@H](CC(C)C)[C@@H](O)CC(=O)O)C(C)C)C(C)C [pepstatin] (Isovaleryl-VV[Sta]A[Sta]-OH)
protease activity of ESW on gelatine SDS-PAGE after inhibitor treatment ([1]; 5 μM inhibitor, data not shown): did not show any reduction in protease activity; also recorded: No reduction in protease activity
